# Measured values from US11535856B2, “Stilbenoid prenyltransferases from plants” (Arkansas State University—Jonesboro, priority 2016, dated 2022).
# B1: AhR3′DT-1 (Arachis hypogaea) (protein)
# chain: MAFGVVAASFSRAPSIVTTRGCYVTRASLPNKSLKFSKEYNLKTSLQHNWKHNSRSIFERGSTITTCDKYDEKKYLMNVTQSHEAEPHSQSILKSIIDALDAFRKFSRFYAFIAMVVGSLSTSLLAVDNLTELYPAFFNGFLQCMAAYFFMHLYIVGINQLADLEIDKINKPYLPLASGNYSFRTAVITVTSFLFTGFGIAWIIGSKPLLWTIFASFVLMTAYSVNLPLLRWKKSTILTVMGNTLSMVISFNLGPFYHMKTHVLKKAATFPRSLLFAVVVMSMYYIVIALTKDIPDIEGDKEAGLQTLAIRLGPKTVFWSSVALLEMAYGAAIIIGASSPFLWSKISVVLSHAILALFVWYRSTLVDLSNKDSLQAFYMLIFKLFSVENILMLFVR
# B2: AhR4DT-1 (Arachis hypogaea) (protein)
# chain: MAFGHLVLIPRSTSSIATTAASCWKSKKFADNYYANSYGRRALWQSDRNLTKDHSIKTSLQHNISKLHYNPIERGSRCNKIEKTYLTNASSSAQSHESEPEVHESPKALESIKKGLVMFLQFCRLYAFLGMIPAGLSSSLLAVDNFSEISPLLFLKGVLQYIVTFFFTSQFVMGVNQLSDVEIDKINKPDLPLASGEYSFTSGVILVTSFLLAGFGVAWMLGSQPLIWSVVVTAALMGAYSVNFPLLRWKRSIILTSLSNAIAMLASFHIGPFLHMKTFVLKKAATFPRSMILGCVVIGLFYTIITLTKDLGDVEGDKAAGLKTLPIRLGVKPVFWLCVSLIQMAYGIAITMGALSPVLWSKIVTVVAHAFMVFYVWNHALNSVDLSSKDSLHSFHLFMFKLVTVEGILIQFVR
# Assays:
# [1] = tested on: rotavirus; settings: HT29.f8 cells; cited from earlier work
# [2] = target: human cannabinoid receptors 2 (hCBR2s) (Homo sapiens, UniProt P34972); settings: cited from earlier work
# human cannabinoid receptors 2 (hCBR2s), sequence (P34972 whole entry): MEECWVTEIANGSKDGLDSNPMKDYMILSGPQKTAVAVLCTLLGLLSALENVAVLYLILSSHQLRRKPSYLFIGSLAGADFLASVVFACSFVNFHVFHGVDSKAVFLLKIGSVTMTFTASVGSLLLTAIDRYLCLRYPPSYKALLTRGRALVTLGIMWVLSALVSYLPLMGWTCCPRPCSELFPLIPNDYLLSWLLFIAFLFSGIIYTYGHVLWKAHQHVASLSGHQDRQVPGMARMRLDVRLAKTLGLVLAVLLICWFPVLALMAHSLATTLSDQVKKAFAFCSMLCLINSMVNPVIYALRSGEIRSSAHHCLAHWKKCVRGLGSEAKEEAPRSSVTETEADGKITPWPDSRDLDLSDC
# [3] = tested on: leukemia HL-60 cells; settings: cited from earlier work
# [4] = Lipophilicity from retention in reverse-phase HPLC; settings: later retention time in reverse-phase HPLC
# [5] = tested on: macrophages; settings: cited from earlier work
# [6] = tested on: SK-MEL, KB, BT-549, and SK-OV-3; settings: BT-549, SK-OV-3; cited from earlier work
# [7] = tested on: resveratrol prenyltransferase AhR4DT; test: Prenyltransferase assay with microsomal fraction of elicited peanut hairy roots; assay type: biochemical, Arachis hypogaea; settings: microsomal fraction of peanut hairy roots, 28° C., 60 min; read-out: apparent km
# [8] = in vivo; cited from earlier work
# [9] = tested on: intracellular reactive oxygen species; settings: cited from earlier work
# [10] = target: AhR3′DT-1 (Arachis hypogaea, UniProt A0A2H4GDD0); test: AhR3′DT-1 activity in microsomal fraction of N. benthamiana leaves; settings: N. benthamiana leaves
# [11] = substrate: Oc1cc(O)cc(/C=C/c2ccc(O)c(O)c2)c1; test: cells, lysate or membranes named
# [12] = substrate: CC(C)=CCOP(=O)(O)OP(=O)(O)O; test: cells, lysate or membranes named; settings: other: microsomal fraction of N. benthamiana leaves, pH 9.0, 28° C.
# [13] = substrate: Oc1ccc(/C=C/c2cc(O)cc(O)c2)cc1; test: cells, lysate or membranes named; settings: other: microsomal fraction of N. benthamiana leaves, pH 9.0, 28° C.
# [14] = tested on: resveratrol prenylation; test: Screening for stilbenoid prenylation activity, crude extract of infiltrated N. benthamiana leaves; assay type: biochemical, Arachis hypogaea; settings: resveratrol and DMAPP as substrates
# Protocol: The engineered A. tumefaciens was grown in 5 mL of YEP medium, containing 50 mg/L of kanamycin (Sigma-Aldrich) and 30 mg/L of streptomycin (Sigma-Aldrich) for antibiotic selection, at 28° C. on an orbital shaker at 200 rpm. After cultivation for 2 days, 5 mL of bacterial suspension was inoculated into 50 mL of fresh YEP medium containing the antibiotics and allowed to grow for one additional day under the same conditions. Bacteria were pelleted by centrifugation, resuspended in 500 mL of induction medium containing 10 mM MgCl2 with 1 mM acetosyringone and incubated for 4 h at 28° C. under 200 rpm orbital shaking until their OD600 reached to a range from 0.5 to 0.6. Before the infiltration, 0.005% of Tween-20, 0.005% of Triton 100 and 0.005% of Silwet L-77 were added to bacterial cultures to enhance the efficiency of transformation in N. benthamiana leaves. Agrobacterium-mediated vacuum infiltration was performed on 4-week-old N. benthamiana following the methodology described previously (Medrano et al., 2009).
# After 48 hours of post-infiltration, the “middle tier” of N. benthamiana leaves were harvested for prenylation activity screening. Five grams of leaf tissue (fresh weight) were grounded and homogenized using a mortar with pestle in 10 mL of extraction buffer containing 100 mM Tris-HCl (pH 7.6) and 10 mM dithiothreitol (DTT). […] The total protein concentration was determined by coomassie protein assay (Thermo Scientific) using bovine serum albumin as standard.
# The reaction of crude cell-free extract of N. benthamiana leaves infiltrated with A. tumefaciens harboring the empty pBIB-Kan vector was used as control.
# [15] = target: AhR4DT-1 (Arachis hypogaea, UniProt A0A2H4GDC8); test: AhR4DT-1 activity in microsomal fraction of N. benthamiana leaves; settings: N. benthamiana leaves
Molecule,replication of rotavirus [1],binding to hCBR2s [2],inhibiting inducible nitric oxide production [5],inhibiting production of intracellular reactive oxygen species [9],Km [12] [µM],Km [13] [µM],further results
CC(C)/C=C/c1c(O)cc(/C=C/c2ccc(O)c(O)c2)cc1O [arachidin-1],inhibiting the replication of rotavirus,shown to bind,more effective than resveratrol,–,–,–,"cytotoxicity [3]: higher cytotoxicity than resveratrol; lipophilicity compared with 3,3-dimethylallyl analogs [4]: higher lipophilicity; cytotoxicity [6]: higher cytotoxicity than resveratrol"
"Oc1ccc(/C=C/c2cc(O)cc(O)c2)cc1 [resveratrol, 3,5,4′-trihydroxy-trans-stilbene]",–,–,–,–,–,–,Km [7]: 111 ± 40.4 µM; oral bioavailability [8]: limited oral bioavailability
CC(C)=CCc1c(O)cc(/C=C/c2ccc(O)cc2)cc1O [arachidin-2],–,–,more effective than resveratrol,greater potency over resveratrol,–,–,–
CC(C)/C=C/c1c(O)cc(/C=C/c2ccc(O)cc2)cc1O [arachidin-3],inhibiting the replication of rotavirus,shown to bind,more effective than resveratrol,greater potency over resveratrol,–,–,–
B1,–,–,–,–,691.4 ± 48.46,17.67 ± 1.601,"specific activity, microsomal fraction vs crude cell-free extracts [10]: 13.9 fold; Km ([11]; pH 9.0, 28.0 °C): 50.3 ± 5.509 µM; resveratrol prenyltransferase activity [14]: highest activity"
B2,–,–,–,–,153.7 ± 27.28,99.52 ± 15.11,"specific activity, microsomal fraction vs crude cell-free extracts [15]: 8.9 fold; Km ([11]; other: microsomal fraction of N. benthamiana leaves, pH 9.0, 28° C.): 311.4 ± 54.83 µM"
